This test addresses Beta tubulin. In words: Inhibition of tubulin polymerization interacting at the colchicine binding site. The test is classed as functional.
Take `COc1c(O)ccc2c1ccc1c(Cc3ccc(O)cc3)c(O)cc(OC)c12`: the IC50 (commonly the concentration at which inhibition is half-maximal) worked out at 30 µM.
With `COc1c(Cc2ccc(O)cc2)c(O)c(Cc2ccc(O)cc2)c2c1-c1ccc(O)cc1CC2`, the IC50 came to 30 µM.
To `COc1cc(O)c(Cc2ccc(O)cc2)c(CCc2cccc(O)c2)c1Cc1ccc(O)cc1` belongs 10 µM; to `COc1cc(O)cc(CCc2cccc(O)c2)c1Cc1ccc(O)cc1`, 10 µM.
Turning to `COc1cc(O)c(-c2c(O)cc3c(c2OC)-c2ccc(O)cc2CC3)c2c1-c1ccc(O)cc1CC2`, the IC50 stood at 30 µM.
As for `COc1cc(O)c2c(c1Cc1ccc(O)cc1)CCc1cc(O)ccc1-2`, the figure is 300 µM; as for `COc1cc(O)c(-c2c(O)cc(OC)c3c2ccc2cc(O)ccc23)c2ccc3cc(O)ccc3c12` [CIRRHOPETALANTHIN], 30 µM.
As for `COc1cc(O)c(-c2c(O)cc(OC)c3c2ccc2cc(O)ccc23)c2c1-c1ccc(O)cc1CC2` [CIRRHOPETALANTHRIN], the figure is 30 µM.
To `CC[C@]1(O)C[C@@H]2CN(CCc3c([nH]c4ccccc34)[C@@](C(=O)OC)(c3cc4c(cc3OC)N(C)[C@H]3[C@@](O)(C(=O)OC)[C@H](OC(C)=O)[C@]5(CC)C=CCN6CC[C@]43[C@@H]65)C2)C1` [VINBLASTINE] belongs 1 µM.

The record behind these values is ChEMBL document CHEMBL1144317, “Antimitotic activity and reversal of breast cancer resistance protein-mediated drug resistance by stilbenoids from Bletilla striata” (Bioorg Med Chem Lett, 2005).
